How the values were obtained:
[1] = biological target: T1, Glucocorticoid receptor (Homo sapiens, UniProt P04150); assay: Antagonist activity at human GR expressed in CHO-K1 cells assessed as reduction in dexamethasone-induced response incubated for 20 hrs by luciferase reporter gene assay; type: cell-based
T1 sequence (P04150 whole entry): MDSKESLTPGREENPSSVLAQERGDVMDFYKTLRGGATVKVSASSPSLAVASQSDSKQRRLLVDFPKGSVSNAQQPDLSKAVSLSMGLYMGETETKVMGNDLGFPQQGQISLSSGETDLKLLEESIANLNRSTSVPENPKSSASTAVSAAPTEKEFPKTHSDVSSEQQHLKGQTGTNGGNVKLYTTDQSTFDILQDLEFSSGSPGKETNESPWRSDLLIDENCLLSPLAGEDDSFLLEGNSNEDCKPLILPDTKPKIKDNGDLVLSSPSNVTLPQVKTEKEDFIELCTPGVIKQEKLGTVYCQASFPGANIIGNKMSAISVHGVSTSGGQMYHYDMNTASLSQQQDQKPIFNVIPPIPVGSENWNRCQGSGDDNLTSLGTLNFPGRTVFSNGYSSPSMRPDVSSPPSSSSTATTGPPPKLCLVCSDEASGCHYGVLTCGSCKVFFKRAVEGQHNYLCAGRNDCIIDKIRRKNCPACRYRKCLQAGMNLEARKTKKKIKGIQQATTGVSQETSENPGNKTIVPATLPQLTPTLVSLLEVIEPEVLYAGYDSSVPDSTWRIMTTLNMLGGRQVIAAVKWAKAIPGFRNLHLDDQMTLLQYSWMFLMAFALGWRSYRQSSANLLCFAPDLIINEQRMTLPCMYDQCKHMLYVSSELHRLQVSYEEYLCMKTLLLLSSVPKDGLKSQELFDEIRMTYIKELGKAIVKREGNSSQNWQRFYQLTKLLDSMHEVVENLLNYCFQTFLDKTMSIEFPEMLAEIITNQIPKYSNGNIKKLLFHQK

[2] = biological target: T1, Glucocorticoid receptor; assay: Agonist activity at human GR expressed in CHO-K1 cells incubated for 20 hrs by luciferase reporter gene assay; type: cell-based
[3] = biological target: T2, glucocorticoid receptor (GR) (Homo sapiens, UniProt P04150); assay: Agonist activity at human GR expressed in CHO-K1 cells incubated for 20 hrs by luciferase reporter gene assay relative to dexamethasone; type: cell-based; settings: CHO-K1 cells expressing human GR
T2 sequence (P04150 whole entry): T1 sequence (P04150 whole entry)

[4] = biological target: T3, Androgen receptor (Homo sapiens, UniProt P10275); assay: Agonist activity at AR (unknown origin) expressed in human LNCaP cells incubated for 20 hrs by luciferase reporter gene assay; type: cell-based
T3 sequence (P10275 whole entry): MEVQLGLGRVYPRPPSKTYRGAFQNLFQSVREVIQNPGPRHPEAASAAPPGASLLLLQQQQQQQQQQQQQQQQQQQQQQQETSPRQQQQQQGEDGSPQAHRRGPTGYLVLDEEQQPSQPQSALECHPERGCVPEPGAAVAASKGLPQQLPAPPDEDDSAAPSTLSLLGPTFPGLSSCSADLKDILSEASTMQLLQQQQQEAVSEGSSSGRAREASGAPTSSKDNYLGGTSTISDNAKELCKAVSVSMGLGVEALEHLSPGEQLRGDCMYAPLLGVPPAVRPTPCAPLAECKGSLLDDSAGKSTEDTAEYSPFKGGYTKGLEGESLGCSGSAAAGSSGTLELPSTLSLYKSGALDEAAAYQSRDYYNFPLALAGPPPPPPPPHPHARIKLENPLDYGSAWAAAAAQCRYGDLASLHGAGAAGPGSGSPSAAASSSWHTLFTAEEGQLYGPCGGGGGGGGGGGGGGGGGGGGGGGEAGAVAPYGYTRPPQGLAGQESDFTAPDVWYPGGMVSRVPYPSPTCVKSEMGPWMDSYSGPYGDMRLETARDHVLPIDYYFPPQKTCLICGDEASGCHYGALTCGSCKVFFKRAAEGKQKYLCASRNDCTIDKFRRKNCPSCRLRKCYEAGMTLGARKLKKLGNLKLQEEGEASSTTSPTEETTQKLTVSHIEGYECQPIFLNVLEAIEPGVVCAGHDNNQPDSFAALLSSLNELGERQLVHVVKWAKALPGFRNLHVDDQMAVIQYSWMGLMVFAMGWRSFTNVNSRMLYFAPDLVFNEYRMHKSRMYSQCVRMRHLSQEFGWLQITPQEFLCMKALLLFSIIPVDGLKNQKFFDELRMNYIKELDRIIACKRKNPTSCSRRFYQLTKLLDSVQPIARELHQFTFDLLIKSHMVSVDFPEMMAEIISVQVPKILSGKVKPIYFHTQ

[5] = biological target: T4, androgen receptor (AR) (Homo sapiens, UniProt P10275); assay: Agonist activity at AR (unknown origin) expressed in human LNCaP cells incubated for 20 hrs by luciferase reporter gene assay relative to mifepristone; type: cell-based; settings: human LNCaP cells expressing AR
T4 sequence (P10275 whole entry): T3 sequence (P10275 whole entry)

[6] = Clearance in rat at 0.5 mg/kg, iv; type: ADME, organism-based; settings: in vivo
[7] = Volume of distribution at steady state in rat at 0.5 mg/kg, iv; type: ADME, organism-based; settings: in vivo, read-out: Vdss
[8] = Half life in rat at 0.5 mg/kg, iv; type: ADME, organism-based; settings: in vivo
[9] = Oral bioavailability in rat at 5 mg/kg; type: ADME, organism-based; settings: in vivo
[10] = Cmax in rat at 5 mg/kg, po; type: ADME, organism-based; parameters: dose 5 mg/kg, route oral; settings: in vivo
[11] = AUC in rat at 5 mg/kg, po; type: ADME, organism-based; settings: in vivo

| SMILES | IC50 [1] [nM] | EC50 [2] [nM] | Emax at 20 h [3] [%] | EC50 [4] [nM] | Emax at 20 h [5] [%] | clearance [6] [mL/min/kg] | Vd [7] [L/kg] | half-life [8] [h] | bioavailability [9] [%] | Cmax [10] [ng/mL] | AUC [11] [ng·h/mL] |
| --- | --- | --- | --- | --- | --- | --- | --- | --- | --- | --- | --- |
| CC#C[C@]1(O)CC[C@H]2[C@@H]3CCC4=CC(=O)CCC4=C3[C@@H](CC)C[C@@]21C | > 5000 | 57 | 36 | > 2500 | 47 | – | – | – | – | – | – |
| COc1cc([C@H]2C[C@@]3(C)[C@@H](CC[C@@]3(O)C#CC(C)(C)C)[C@@H]3CCC4=CC(=O)CCC4=C32)ccc1N(C)C | 48 | > 2500 | 1 | > 2500 | 5.7 | – | – | – | – | – | – |
| CN(C)c1cccc([C@H]2C[C@@]3(C)[C@@H](CC[C@@]3(O)C#CC(C)(C)C)[C@@H]3CCC4=CC(=O)CCC4=C32)c1 | 205 | > 2500 | 1.3 | > 2500 | 7.5 | – | – | – | – | – | – |
| CN(C)c1ccc([C@H]2C[C@@]3(C)[C@@H](CC[C@@]3(O)C#CC(C)(C)C)[C@@H]3CCC4=CC(=O)CC[C@@H]4[C@H]32)cc1 | 5.6 | > 2500 | 2.2 | 224 | 22 | – | – | – | – | – | – |
| CC(C)(C)C#C[C@]1(O)CC[C@H]2[C@@H]3CCC4=CC(=O)CCC4=C3[C@@H](c3ccc(N4CCCC4)cc3)C[C@@]21C | 19.5 | > 2500 | 1.2 | > 2500 | 13.3 | 4.67 | 1.5 | 3.6 | 0.7 | 21 | 167 |
| CC#C[C@]1(O)CC[C@H]2[C@@H]3CCC4=CC(=O)CCC4=C3[C@@H](c3cccc(N(C)C)c3)C[C@@]21C | 64 | > 2500 | 1.5 | > 2500 | 5.8 | – | – | – | – | – | – |
| CN(C)c1c(F)cc([C@H]2C[C@@]3(C)[C@@H](CC[C@@]3(O)C#CC(C)(C)C)[C@@H]3CCC4=CC(=O)CCC4=C32)cc1F | 43 | > 2500 | 1.3 | > 2500 | 8.8 | – | – | – | – | – | – |
| COC(C)(C)C#C[C@]1(O)CC[C@H]2[C@@H]3CCC4=CC(=O)CC[C@@H]4[C@H]3[C@@H](c3ccc(N(C)C)cc3)C[C@@]21C | 14.6 | > 2500 | 1.7 | > 2500 | 10.6 | 83.3 | 7.2 | 2.4 | 54 | 295 | 544 |
| CC(C)C#C[C@]1(O)CC[C@H]2[C@@H]3CCC4=CC(=O)CCC4=C3[C@@H](c3ccc(N(C)C)cc3)C[C@@]21C | 26 | > 2500 | 1.8 | > 2500 | 50 | – | – | – | – | – | – |
| Cc1cc([C@H]2C[C@@]3(C)[C@@H](CC[C@@]3(O)C#CC(C)(C)C)[C@@H]3CCC4=CC(=O)CCC4=C32)ccc1N(C)C | 28 | > 2500 | 1.2 | > 2500 | 17 | – | – | – | – | – | – |

Continued by falling IC50 [1], values first:

| IC50 [1] [nM] | EC50 [2] [nM] | Emax at 20 h [3] [%] | EC50 [4] [nM] | Emax at 20 h [5] [%] | clearance [6] [mL/min/kg] | Vd [7] [L/kg] | half-life [8] [h] | bioavailability [9] [%] | Cmax [10] [ng/mL] | AUC [11] [ng·h/mL] | SMILES |
| --- | --- | --- | --- | --- | --- | --- | --- | --- | --- | --- | --- |
| 18.1 | > 2500 | 9.3 | > 2500 | 26 | – | – | – | – | – | – | CC#C[C@]1(O)CC[C@H]2[C@@H]3CCC4=CC(=O)CCC4=C3[C@@H](C3CCCCC3)C[C@@]21C |
| 17.5 | > 2500 | 1.5 | > 2500 | 20 | 6.83 | 1.7 | 3.4 | 0 | – | – | CCc1ccc([C@H]2C[C@@]3(C)[C@@H](CC[C@@]3(O)C#CC(C)(C)C)[C@@H]3CCC4=CC(=O)CCC4=C32)cc1 |
| 16.7 | > 2500 | 1.8 | > 2500 | 23 | – | – | – | – | – | – | CC(C)(C)C#C[C@]1(O)CC[C@H]2[C@@H]3CCC4=CC(=O)CCC4=C3[C@@H](c3ccc(N4CCS(=O)(=O)CC4)cc3)C[C@@]21C |
| 16.6 | > 2500 | 1.1 | > 2500 | 9.8 | – | – | – | – | – | – | COc1ccc([C@H]2C[C@@]3(C)[C@@H](CC[C@@]3(O)C#CC(C)(C)C)[C@@H]3CCC4=CC(=O)CCC4=C32)cc1 |
| 16.1 | > 2500 | 1.5 | > 2500 | 16 | – | – | – | – | – | – | Cc1ccc([C@H]2C[C@@]3(C)[C@@H](CC[C@@]3(O)C#CC(C)(C)C)[C@@H]3CCC4=CC(=O)CCC4=C32)cc1 |
| 16 | > 2500 | 1.5 | > 2500 | 25 | – | – | – | – | – | – | CC(C)c1ccc([C@H]2C[C@@]3(C)[C@@H](CC[C@@]3(O)C#CC(C)(C)C)[C@@H]3CCC4=CC(=O)CCC4=C32)cc1 |
| 14.2 | 17.4 | 7 | > 2500 | 27 | – | – | – | – | – | – | CC#C[C@]1(O)CC[C@H]2[C@@H]3CCC4=CC(=O)CCC4=C3[C@@H](c3ccccc3)C[C@@]21C |
| 13.3 | > 2500 | 1.5 | > 2500 | 18.7 | – | – | – | – | – | – | CC(C)(C)C#C[C@]1(O)CC[C@H]2[C@@H]3CCC4=CC(=O)CCC4=C3[C@@H](c3ccc(N4CCOCC4)cc3)C[C@@]21C |
| 12.4 | > 2500 | 1.3 | > 2500 | 11 | – | – | – | – | – | – | CN(C)c1cc(F)c([C@H]2C[C@@]3(C)[C@@H](CC[C@@]3(O)C#CC(C)(C)C)[C@@H]3CCC4=CC(=O)CCC4=C32)c(F)c1 |
| 11.2 | > 2500 | 2.4 | 54 | 117 | – | – | – | – | – | – | CN(C)c1ccc([C@H]2C[C@@]3(C)[C@@H](CC[C@@]3(O)C#CC(F)(F)F)[C@@H]3CCC4=CC(=O)CCC4=C32)cc1 |
| 9.6 | > 2500 | 2.2 | > 2500 | 11 | 50 | 6.7 | 4.4 | 7.2 | 59 | 123 | CC(C)(C)C#C[C@]1(O)CC[C@H]2[C@@H]3CCC4=CC(=O)CCC4=C3[C@@H](c3ccc(C4(C)COC4)cc3)C[C@@]21C |
| 8.5 | > 2500 | 2.1 | 30 | 101 | – | – | – | – | – | – | CCC#C[C@]1(O)CC[C@H]2[C@@H]3CCC4=CC(=O)CCC4=C3[C@@H](c3ccc(N(C)C)cc3)C[C@@]21C |
| 1.93 | > 2500 | 3.1 | 13 | 198 | – | – | – | – | – | – | CC#C[C@]1(O)CC[C@H]2[C@@H]3CCC4=CC(=O)CCC4=C3[C@@H](c3ccc(C(C)C)cc3)C[C@@]21C |

From ChEMBL document CHEMBL4145686, “Discovery of a Potent and Selective Steroidal Glucocorticoid Receptor Antagonist (ORIC-101)” (J Med Chem, 2018)
